Common to all, as to format: in vivo
Experiment [1] concerns Narrow-leaved Plants (a, b, c, k). Kind of experiment: Average withering rate, single and mixed solutions (Test Example 11). On the set-up: unit: %. The settings on record: 3 weeks. The source says:
(§1) The alphabetical symbols in Tables 2 and 3 represent the following plants, respectively: a: Digitaria adscendens b: Setaria viridis c: Sorghum halepense d: Chenopodium album var. centrorubrum e: Amaranthus mangostanus f: Astragalus sinicus g: Abutilon theophrosti h: Solanum nigrum i: Xanthium strumarium j: Soybean; Glycine max k: Corn; Zea mays Table 2
(§2) In each run, the compound (1) according to the invention only or the N-phosphonomethylglycine derivatives (117) only or the mixture thereof were used as in the Test Example 1 to prepare single solutions and mixed solutions by using various amounts of each components. Each of the preparations were applied to the plants as in Test Example 1 and the cultivation was continued for 3 weeks without additive application thereafter.
(§3) The results were analyzed by Tammes's method [Tammes, P.M.L.: Neth. J. Plant Path., 70, 73-80 (1964)] which was cited in "Zasso Kenkyuu" (in Japanese) (Weed Studies) 14, 12-18 […] and shown in Fig. 1 and Fig. 2.
(§4) Fig. 1 represents the average withering rate of 4 kinds of narrow-leaved plants (a, b, c, and k), while Fig. 2 gives withering rate of 7 kinds of broad-leaved plants (d, e, f, g, h, i j). As these figures show clearly, the curve binding the points of 95 % effect is inside the one of the synergistic effect, thus it can be concluded that the mixed preparation has synergistic effect.

The test system of experiment [2] is Broad-leaved Plants (d, e, f, g, h, i, j). The description is as above. The arrangement: unit: %. The settings on record: 3 weeks.
Text: as §1, §2, §3, §4

In experiment [3] the test system is Sorghum halepense. Kind of experiment: Herbicidal activity, spray of diphenyl ether with N-phosphonomethylglycine derivative (Test Examples 6 to 10). The settings on record: Application 0.375 Kg/ha (117) alone. On the set-up: key: 0 means the state where the plants are as sound as before the application of the active compound; 1, 2, 3 and 4 mean varying degrees of the enfeebled state of the plants between 0 and 5; 1, 2, 3 and 4 mean varying degrees of the enfeebled state of the plants between 0 and 5; 1, 2, 3 and 4 mean varying degrees of the enfeebled state of the plants between 0 and 5; 1, 2, 3 and 4 mean varying degrees of the enfeebled state of the plants between 0 and 5; 5 is the state where the plants are withered or killed by application of the active compound. The method, then: (§5) In these examples, all parts means parts by weight, unless otherwise noted. The herbicidal activity was evaluated on a scale of 6 degrees. In other words, 0 means the state where the plants are as sound as before the application of the active compound, while 5 is the state where the plants are withered or killed by application of the active compound, and 1, 2, 3 and 4 mean varying degrees of the enfeebled state of the plants between 0 and 5.
(§6) In each run, the diphenyl ether derivatives and the N-phosphonomethylglycine derivatives shown in Table 3 (in the indicated mixing ratios) was dissolved in 16 parts by volume of a mixture of water and acetone (1 : 1 by volume; containing 0.05 % of a nonionic surfactant, Sorpol-2680) in the indicated mixing ratio, respectively, to prepare spray solutions.
(§7) The plants tested were grown in vinyl resin pots (diameter 10 cm) filled with soil in a green house for 2 to 3 weeks after germination from seeds or tubers.
(§8) The spray solution was applied to the plants so that the total volume sprayed became 4 cc/100 cm², and the herbicidal activity was examined.
as §1

For experiment [4], the system named is Soybean; Glycine max. The experiment is described as above. On the set-up: key: 0 means the state where the plants are as sound as before the application of the active compound; 1, 2, 3 and 4 mean varying degrees of the enfeebled state of the plants between 0 and 5; 1, 2, 3 and 4 mean varying degrees of the enfeebled state of the plants between 0 and 5; 1, 2, 3 and 4 mean varying degrees of the enfeebled state of the plants between 0 and 5; 1, 2, 3 and 4 mean varying degrees of the enfeebled state of the plants between 0 and 5; 5 is the state where the plants are withered or killed by application of the active compound. The note with it: Application 0.375 Kg/ha (117) alone. On the procedure:
as §5, §6, §7, §8, §1

The subject of experiment [5] is Digitaria adscendens. The experiment is described as above. On the set-up: key: 0 means the state where the plants are as sound as before the application of the active compound; 1, 2, 3 and 4 mean varying degrees of the enfeebled state of the plants between 0 and 5; 1, 2, 3 and 4 mean varying degrees of the enfeebled state of the plants between 0 and 5; 1, 2, 3 and 4 mean varying degrees of the enfeebled state of the plants between 0 and 5; 1, 2, 3 and 4 mean varying degrees of the enfeebled state of the plants between 0 and 5; 5 is the state where the plants are withered or killed by application of the active compound. The settings on record: Application 0.375 Kg/ha (117) alone. The method, then:
as §5, §6, §7, §8, §1

The test system of experiment [6] is Xanthium strumarium. The experiment is described as above. The arrangement: key: 0 means the state where the plants are as sound as before the application of the active compound; 1, 2, 3 and 4 mean varying degrees of the enfeebled state of the plants between 0 and 5; 1, 2, 3 and 4 mean varying degrees of the enfeebled state of the plants between 0 and 5; 1, 2, 3 and 4 mean varying degrees of the enfeebled state of the plants between 0 and 5; 1, 2, 3 and 4 mean varying degrees of the enfeebled state of the plants between 0 and 5; 5 is the state where the plants are withered or killed by application of the active compound. The settings on record: Application 0.375 Kg/ha (117) alone. The method, then: as §5, §6, §7, §8, §1

Experiment [7] concerns Astragalus sinicus. The experiment is described as above. The arrangement: key: 0 means the state where the plants are as sound as before the application of the active compound; 1, 2, 3 and 4 mean varying degrees of the enfeebled state of the plants between 0 and 5; 1, 2, 3 and 4 mean varying degrees of the enfeebled state of the plants between 0 and 5; 1, 2, 3 and 4 mean varying degrees of the enfeebled state of the plants between 0 and 5; 1, 2, 3 and 4 mean varying degrees of the enfeebled state of the plants between 0 and 5; 5 is the state where the plants are withered or killed by application of the active compound. The settings on record: Application 0.375 Kg/ha (117) alone. The method, then: as §5, §6, §7, §8, §1

Experiment [8] relates to Chenopodium album var. centrorubrum. The experiment is described as above. The note with it: Application 0.375 Kg/ha (117) alone. On the set-up: key: 0 means the state where the plants are as sound as before the application of the active compound; 1, 2, 3 and 4 mean varying degrees of the enfeebled state of the plants between 0 and 5; 1, 2, 3 and 4 mean varying degrees of the enfeebled state of the plants between 0 and 5; 1, 2, 3 and 4 mean varying degrees of the enfeebled state of the plants between 0 and 5; 1, 2, 3 and 4 mean varying degrees of the enfeebled state of the plants between 0 and 5; 5 is the state where the plants are withered or killed by application of the active compound. The method, then:
as §5, §6, §7, §8, §1

Where [9] appears, read: Compound (1) 0.008 kg a.i./ha, Compound (117) 0 kg a.i./ha.
[10] abbreviates: Compound (1) 0.016 kg a.i./ha, Compound (117) 0 kg a.i./ha.
The mark [11] stands for this setting: Compound (1) 0.031 kg a.i./ha, Compound (117) 0 kg a.i./ha.
Setting [12] is: Compound (1) 0 kg a.i./ha, Compound (117) 0.094 kg a.i./ha.
The mark [13] stands for this setting: Compound (1) 0 kg a.i./ha, Compound (117) 0.188 kg a.i./ha.
Where [14] appears, read: Compound (1) 0 kg a.i./ha, Compound (117) 0.375 kg a.i./ha.
The mark [15] stands for this setting: Compound (1) 0 kg a.i./ha, Compound (117) 0.750 kg a.i./ha.

Molecules are shown by their SMILES. Structures can show the parent of a compound that is named as a salt.

Results on two compounds are retold here after patent publication EP0533925A1, “OPTICAL ISOMER OF R-FORM OF DIPHENYL ETHER DERIVATIVE AND HERBICIDE CONTAINING THE SAME AS ACTIVE INGREDIENT” (TEIJIN LIMITED, priority 1990, dated 1991).

Regarding `COC(=O)C(C)Oc1cc(Oc2ccc(C(F)(F)F)cc2Cl)ccc1C#N` (stereo not drawn) [Compound (1), Methyl α-[2-cyano-5-(2-chloro-4-trifluoromethylphenoxy)phenoxy]propionate], the “Average Withering Rates of Narrow-leaved Plants (a, b, c, k)” value in experiment [1] (setting [9]) was determined as 33; in experiment [1] (setting [10]), 47; in experiment [1] (setting [11]), 80; in experiment [1] (Compound (1) 0.063 kg a.i./ha, Compound (117) 0 kg a.i./ha) it was 93. Also, the “Average Withering Rates of Broad-leaved Plants (d, e, f, g, h, i, j)” value in experiment [2] (setting [9]) is recorded as 80; in experiment [2] (setting [10]) it was 80; in experiment [2] (setting [11]) it was 96.
On to `O=C(O)CNCP(=O)(O)O` [Compound (117), N-phosphonomethylglycine isopropylammonium salt], for which the “Average Withering Rates of Narrow-leaved Plants (a, b, c, k)” value worked out at 50 in experiment [1] (setting [12]), 87 in experiment [1] (setting [13]), 87 in experiment [1] (setting [14]) and 95 in experiment [1] (setting [15]). In addition, the “Average Withering Rates of Broad-leaved Plants (d, e, f, g, h, i, j)” value was found to be 4 in experiment [2] (setting [12]), 36 in experiment [2] (setting [13]), 55 in experiment [2] (setting [14]) and 80 in experiment [2] (setting [15]). Besides, the “herbicidal activity, Plants c” value is 0 in experiment [3] (3 days after treatment), 0 in experiment [3] (7 days after treatment) and 1 in experiment [3] (14 days after treatment). In addition, the “herbicidal activity, Plants j” value in experiment [4] (3 days after treatment), in experiment [4] (7 days after treatment) and in experiment [4] (14 days after treatment) was 0 each time. Also, the “herbicidal activity, Plants a” value in experiment [5] (3 days after treatment) was found to be 3; in experiment [5] (7 days after treatment) it was 1; in experiment [5] (14 days after treatment), 3. For the same compound, the “herbicidal activity, Plants i” value stood at 0 in experiment [6] (3 days after treatment), 0 in experiment [6] (7 days after treatment) and 1 in experiment [6] (14 days after treatment). Besides, the “herbicidal activity, Plants f” value in experiment [7] (3 days after treatment), in experiment [7] (7 days after treatment) and in experiment [7] (14 days after treatment) was 0 in each case. The “herbicidal activity, Plants d” value was 0 in experiment [8] (3 days after treatment), 0 in experiment [8] (7 days after treatment) and 1 in experiment [8] (14 days after treatment).
